Four compounds from US20240131032A1, “AN ACTIVITY-GUIDED MAP OF ELECTROPHILE-CYSTEINE INTERACTIONS IN PRIMARY HUMAN IMMUNE CELLS” (The Scripps Research Institute, priority 2019, published 2024) can be followed below.

Assay type in all cases: binding
The target in experiment [1] is T1, ERCC3 (Homo sapiens, UniProt P19447).
T1 construct: endogenous in cells; host or cells: primary human T cells
T1 sequence (P19447 1-782): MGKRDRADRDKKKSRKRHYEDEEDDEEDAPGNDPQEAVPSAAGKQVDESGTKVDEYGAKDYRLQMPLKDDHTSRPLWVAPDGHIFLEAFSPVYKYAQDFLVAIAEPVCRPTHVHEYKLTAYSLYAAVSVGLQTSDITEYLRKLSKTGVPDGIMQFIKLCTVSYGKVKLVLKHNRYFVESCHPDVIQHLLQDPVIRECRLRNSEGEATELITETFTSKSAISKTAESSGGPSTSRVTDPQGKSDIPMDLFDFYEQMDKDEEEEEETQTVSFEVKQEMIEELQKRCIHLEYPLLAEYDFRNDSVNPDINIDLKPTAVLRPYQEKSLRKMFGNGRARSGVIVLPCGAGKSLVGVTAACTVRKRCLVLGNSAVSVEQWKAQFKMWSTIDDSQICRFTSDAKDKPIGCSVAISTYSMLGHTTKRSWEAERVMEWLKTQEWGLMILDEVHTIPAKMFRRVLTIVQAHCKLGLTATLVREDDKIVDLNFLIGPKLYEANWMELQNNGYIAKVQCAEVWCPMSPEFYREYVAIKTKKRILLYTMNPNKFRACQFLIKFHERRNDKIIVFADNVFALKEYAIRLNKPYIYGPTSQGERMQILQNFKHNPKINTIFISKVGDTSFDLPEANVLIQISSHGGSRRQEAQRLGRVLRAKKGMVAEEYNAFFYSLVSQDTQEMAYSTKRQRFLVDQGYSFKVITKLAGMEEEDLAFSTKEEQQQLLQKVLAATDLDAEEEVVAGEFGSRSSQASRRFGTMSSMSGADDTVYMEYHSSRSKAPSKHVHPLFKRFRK
The experiment in a line: isoTOP-ABPP and TMT-ABPP cysteine engagement, ERCC3. How it is done:
(§1) Activated or expanded T cells were re-suspended in RPMI media supplemented with 10% FBS, L-glutamine (2 mM), penicillin (100 U/mL), and streptomycin (100 μg/mL) at 2×10^6 cells/mL. The compounds were added to cells as 1000×DMSO stocks and mixed well with the media by pipetting up and down after addition. The cells were kept at 37° C. in 5% CO2 containing incubators for 3 h (or otherwise specified times), then pelleted by centrifugation (524 g, 5 min, 4° C.), washed with cold PBS (10 mL) and transferred to Eppendorf tubes (1 mL PBS). The cells were pelleted again (524 g, 5 min, 4° C.), flash-frozen, and kept at −80° C. until further analysis.
(§2) Activated or expanded primary human T cells were re-suspended in RPMI (1×10^6 cells/mL) containing 10% fetal bovine serum (FBS), penicillin (100 U/mL), streptomycin ([…]), and L-glutamine (2 mM). The cells were treated with DMSO or compounds for 3 h, pelleted (524 g, 5 min), washed with PBS, and lysed by sonication (2×8 pulses). Soluble and particulate proteomic fractions were separated by ultracentrifugation (100,000 g, 45 min), and protein concentration was normalized to 1.7 mg/mL using a standard DC protein assay (Bio-Rad). The resulting proteomes were analyzed by competitive isotopic Tandem Orthogonal Proteolysis Activity-Based Protein Profiling (isoTOP-ABPP).
Samples (500 μL, 1.7 mg/mL) were treated with iodoacetamide alkyne (IA-alkyne, 5 μL of 10 mM stock in DMSO, final concentration: 100 μM) for 1 h at ambient temperature. Modified proteins were then conjugated to isotopically labeled, TEV-cleavable biotin tags (TEV-tags) using copper-catalyzed azide-alkyne cycloaddition reaction (CuAAC). Reagents for the CuAAC reaction were pre-mixed prior to their addition to the proteome samples. […]
(§3) The heavy/light isoTOP-ABPP ratios (R values) for each unique peptide (DMSO/compound treated) were quantified with in-house CIMAGE software (Weerapana et al., 2010) using default parameters (3 MS1 acquisitions per peak and signal to noise threshold set to 2.5). Site-specific engagement of cysteine residues was assessed by blockade of IA-alkyne probe labeling. […] Ratios for unique peptide sequences were calculated for each experiment; overlapping peptides with the same modified cysteine (e.g., different charge states, elution times or tryptic termini) were grouped together and the median ratio was reported as the final ratio (R). […]

For experiment [2], the target named is T2, MYD88 (Homo sapiens, UniProt Q99836).
T2 construct: endogenous in cells
Briefly: isoTOP-ABPP and TMT-ABPP cysteine engagement, MYD88. How it is done: as §1
as §2, with “(isoTOP-ABPP). […]” for “(isoTOP-ABPP).”
as §3

In experiment [3] the target is BIRC2 (Homo sapiens, UniProt Q13490). Briefly: isoTOP-ABPP and TMT-ABPP cysteine engagement, BIRC2. More on the design: endogenous in cells; host or cells: primary human T cells. How it is done: as §1
Activated or expanded primary human T cells were re-suspended in RPMI (1×10^6 cells/mL) containing 10% fetal bovine serum (FBS), penicillin (100 U/mL), streptomycin ([…]), and L-glutamine (2 mM). […] The resulting proteomes were analyzed by competitive isotopic Tandem Orthogonal Proteolysis Activity-Based Protein Profiling (isoTOP-ABPP). […]
The heavy/light isoTOP-ABPP ratios (R values) for each unique peptide (DMSO/compound treated) were quantified with in-house CIMAGE software (Weerapana et al., 2010) using default parameters (3 MS1 acquisitions per peak and signal to noise threshold set to 2.5). Site-specific engagement of cysteine residues was assessed by blockade of IA-alkyne probe labeling. […]

BIRC2, sequence (Q13490 whole entry): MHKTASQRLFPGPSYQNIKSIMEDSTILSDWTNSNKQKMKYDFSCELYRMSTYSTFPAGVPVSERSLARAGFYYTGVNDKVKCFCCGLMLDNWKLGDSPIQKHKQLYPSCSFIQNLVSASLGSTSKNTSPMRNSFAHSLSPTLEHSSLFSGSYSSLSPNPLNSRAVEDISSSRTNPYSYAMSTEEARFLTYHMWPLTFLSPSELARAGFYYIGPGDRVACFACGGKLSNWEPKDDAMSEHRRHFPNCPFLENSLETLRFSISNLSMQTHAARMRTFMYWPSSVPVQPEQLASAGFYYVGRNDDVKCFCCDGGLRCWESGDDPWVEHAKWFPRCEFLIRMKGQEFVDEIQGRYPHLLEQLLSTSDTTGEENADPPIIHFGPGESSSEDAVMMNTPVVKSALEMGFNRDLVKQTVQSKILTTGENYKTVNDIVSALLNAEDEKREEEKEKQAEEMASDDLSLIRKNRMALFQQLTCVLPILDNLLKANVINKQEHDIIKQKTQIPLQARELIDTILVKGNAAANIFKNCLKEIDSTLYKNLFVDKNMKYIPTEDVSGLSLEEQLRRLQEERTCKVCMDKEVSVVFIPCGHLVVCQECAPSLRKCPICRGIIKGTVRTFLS
T2 sequence (Q99836 whole entry): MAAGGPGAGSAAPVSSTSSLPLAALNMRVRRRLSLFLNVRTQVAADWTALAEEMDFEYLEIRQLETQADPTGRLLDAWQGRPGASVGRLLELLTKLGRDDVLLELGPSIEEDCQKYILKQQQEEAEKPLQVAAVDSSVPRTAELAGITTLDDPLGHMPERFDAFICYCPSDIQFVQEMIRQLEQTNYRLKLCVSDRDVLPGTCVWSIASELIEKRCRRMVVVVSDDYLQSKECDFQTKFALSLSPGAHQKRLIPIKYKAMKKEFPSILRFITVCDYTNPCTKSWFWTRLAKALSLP

On to `C=CC(=O)N(Cc1cccc(Cl)c1Cl)c1ccc(Oc2ccccc2)c(C(F)(F)F)c1` [BPK-21], for which, in experiment [1], the “efficacy at ERCC3 C342, BPK-21 with respect to BPK-25” value was “higher efficacy” and the “engagement of C342 of ERCC3” value was “alkylating C342”.

In the case of `C=CC(=O)N(Cc1cccc(Cl)n1)c1ccc(C(=O)Nc2ccccc2)nc1` [BPK-25], in experiment [1], the “engagement of C342 of ERCC3” value was “alkylating C342”. Besides, the “labeling of C203 of MYD88” value in experiment [2] was “direct labeling of C203”.

For the compound `COC(=O)/C=C/C(=O)OC` [DMF, reference compound], in experiment [3], the “engagement of C45 of BIRC2” value is reported as “engaged”.

For the compound `O=C(CCl)N1CCN(S(=O)(=O)c2ccc(-c3ccncc3)cc2)CC1` [EV-3], the “engagement of C45 of BIRC2” value in experiment [3] is reported as “engaged”.
